Data: US20060029644A1, “In vitro biochemical reactions with free anhydrous D-ribose” (priority 2004, published 2006)
Entries after “also recorded” stand apart in the source; their conditions may differ.

What was measured:
[1] = stability of the powder on heating; format: physicochemical; conditions: for stability of the powder when heated: 150° F., heated alone or mixed with each other
[2] = taken in 20 grams or less a day; cited from earlier work
solubility in water = format: physicochemical

SMILES: O=C(CO)[C@@H](O)[C@H](O)[C@H](O)CO [fructose, reference compound]
- stability of the powder when heated [1]: remain powders

SMILES: OC[C@H]1O[C@@](CO)(O[C@H]2O[C@H](CO)[C@@H](O)[C@H](O)[C@H]2O)[C@@H](O)[C@@H]1O [sucrose, reference compound]
- stability of the powder when heated [1]: remain powders

SMILES: O=C[C@H](O)[C@H](O)[C@H](O)CO [anhydrous D-ribose]
- toxicity [2]: extremely low toxicity
- temperature to which the powder can be heated without losing its powdery form [1]: < 120 ° F.
- stability of the powder when heated [1]: unstable

SMILES: OC[C@H]1O[C@@H](O[C@H]2[C@H](O)[C@@H](O)C(O)O[C@@H]2CO)[C@H](O)[C@@H](O)[C@H]1O (stereo partly drawn) [lactose, reference compound]
- stability of the powder when heated [1]: remain powders

SMILES: O.O=C[C@H](O)[C@H](O)[C@H](O)CO [ribose monohydrate, D-ribose monohydrate]
- solubility in water (solubility in water; listed as monohydrate): very soluble in water
- solubility in water (solubility in water; monohydrate): highly soluble in water; also recorded: extreme solubility; also recorded: highest possible solubility in water
- stability compared with the anhydrous powder ([1]; especially with water, sugars and some consumable monohydrates): far more stable
